Laboratory results from patent US20250170090A1, “METHOD FOR PREVENTING OR TREATING DISEASE OR DISORDER ASSOCIATED WITH ANTINEOPLASTIC AGENT” (ONQUALITY PHARMACEUTICALS CHINA LTD., priority 2022, published 2025).
Read-outs that look alike come from different tables or passages of the source.

Tests used:
HUVEC cells = experiment: CCK-8 cell viability: alleviation of proliferative toxicity of anti-tumor agents on HUVEC cells (Tables 7-1, 7-2); type: cell-based; conditions: for activation at 100 µM: Homo sapiens, 24 h, percentage increase in viable cells vs anti-tumor agent alone, read-out: Response rate % (average)
In short: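 HUVEC cells were treated with anti-tumor agent (DMSO solvent) alone or combined with NO-NSAID (ethanol or water solvent), and NO-NSAID solvent controls were used for correction. After 24-48 h of culture, viability was read by CCK-8 to derive proliferative toxicity and how much NO-NSAID mitigated it.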

[1] = test system: human oral keratinocytes (HOK); experiment: CCK-8 cell viability: alleviation of proliferative toxicity of anti-tumor agents on HOK (Table 8-2); type: cell-based; conditions: NO-NSAID 100 μM
Procedure: (§1) Experiments were conducted using various epithelial cells: Examples 47-51 used human immortalized keratinocytes (HaCaT) with corresponding results in Table 8-1; Examples 52-56 used human oral keratinocytes (HOK) with results in Table 8-2; Examples 57-61 used gastric epithelial cells (GES-1) with results in Table 8-3; Examples 62-66 used human intestinal epithelial cells (FHs 74 Int) with results in Table 8-4.
(§2) The cultured cells were digested the suspended, counted, and seed into a 96-well plate with 5,000-10,000 cells per well. The wells are divided into the following groups: blank control group, anti-tumor agent group, anti-tumor agent+NO-NSAID group, anti-tumor agent solvent group, NO-NSAID solvent control group. Wherein each well of each group contained a basic medium, and the final liquid volume contained in each well was about 100 μL. The grouping situation was as follows: • 1) Blank control group: no solution was added except normally replacing the medium; • 2) Anti-tumor agent group: added the anti-tumor agent solution (the final concentration was shown in Table 8-1 to Table 8-4, the solvent of the anti-tumor agent solution was DMSO); • 3) Anti-tumor agent+NO-NSAID group: added the anti-tumor agent solution and the NO-NSAID solution (the final concentrations of anti-tumor agent and NO-NSAID were shown in Table 8-1 to Table 8-4, and according to the solubility of NO-NSAID, the solvent of NO-NSAID solution was selected as ethanol or sterile water, and minor volume differences in each group were adjusted by added the corresponding solvent); • 4) Anti-tumor agent solvent group: an equal volume of DMSO as contained in the corresponding anti-tumor agent solution in Group 2) was added; • 5) NO-NSAID control group: the same volume and type of solvent (for example, ethanol or sterile water) corresponding to the NO-NSAID contained in group 3) was added.
(§3) The anti-tumor agent solvent group was not involved in data processing and was only used as a reference for evaluating experimental system error. The NO-NSAID solvent control group was used for data correction to eliminate the influence of the solvent on the results.
(§4) After culturing for 24-48 hours, the Cell Counting Kit-8 (CCK-8) detection kit (C0037, Shanghai Beyotime Biotechnology Co., Ltd., Beyotime Biotechnology) was used to determine the cell viability. This allows for the calculation of the proliferative toxicity of anti-tumor agent on cell and the mitigating effect of NO-NSAID on proliferative toxicity. The results were statistically analyzed and plotted using GraphPad Prism 6.0 software and t test.

[2] = test system: gastric epithelial cells (GES-1); experiment: CCK-8 cell viability: alleviation of proliferative toxicity of anti-tumor agents on GES-1 (Table 8-3); type: cell-based, human; conditions: NO-NSAID 100 μM
Procedure: as §1, §2, §3, §4

[3] = Afatinib (10 μM), NO-NSAID 100 μM
[4] = Cabozantinib (5 μM), NO-NSAID 100 μM
[5] = Dabrafenib (10 μM), NO-NSAID 100 μM
[6] = Everolimus (5 μM), NO-NSAID 100 μM
[7] = Infigratinib (15 μM), NO-NSAID 100 μM
[8] = Lapatinib (5 μM), NO-NSAID 100 μM
[9] = Lenvatinib (10 μM), NO-NSAID 100 μM
[10] = Olmutinib (10 μM), NO-NSAID 100 μM
[11] = Regorafenib (5 μM), NO-NSAID 100 μM
[12] = Selumetinib (5 μM), NO-NSAID 100 μM
[13] = Sorafenib (5 μM), NO-NSAID 100 μM
[14] = Sunitinib (5 μM), NO-NSAID 100 μM

## CC(=O)Oc1ccccc1C(=O)OCOC(=O)CCCCCO[N+](=O)[O-] [Compound A3]
HUVEC cells; Afatinib (10 μM), NO-NSAID 0.1 μM
  NO-NSAID response rate % (average): 15%
HUVEC cells; Afatinib (10 μM), NO-NSAID 1 μM
  NO-NSAID response rate % (average): 24%
HUVEC cells; [3]
  NO-NSAID response rate % (average): 32%
  activation at 100 µM: 32%
HUVEC cells; Afatinib (10 μM), NO-NSAID 500 μM
  NO-NSAID response rate % (average): 22%
HUVEC cells; Cabozantinib (5 μM), NO-NSAID 0.1 μM
  NO-NSAID response rate % (average): 14%
HUVEC cells; Cabozantinib (5 μM), NO-NSAID 1 μM
  NO-NSAID response rate % (average): 29%
HUVEC cells; [4]
  NO-NSAID response rate % (average): 56%
  activation at 100 µM: 56%
HUVEC cells; Cabozantinib (5 μM), NO-NSAID 500 μM
  NO-NSAID response rate % (average): 24%
HUVEC cells; Dabrafenib (10 μM), NO-NSAID 0.1 μM
  NO-NSAID response rate % (average): 25%
HUVEC cells; Dabrafenib (10 μM), NO-NSAID 1 μM
  NO-NSAID response rate % (average): 30%
HUVEC cells; [5]
  NO-NSAID response rate % (average): 64%
  activation at 100 µM: 64%
HUVEC cells; Dabrafenib (10 μM), NO-NSAID 500 μM
  NO-NSAID response rate % (average): 33%
HUVEC cells; Everolimus (5 μM), NO-NSAID 0.1 μM
  NO-NSAID response rate % (average): −8%
HUVEC cells; Everolimus (5 μM), NO-NSAID 1 μM
  NO-NSAID response rate % (average): −8%
HUVEC cells; [6]
  NO-NSAID response rate % (average): 56%
  activation at 100 µM: 56%
HUVEC cells; Everolimus (5 μM), NO-NSAID 500 μM
  NO-NSAID response rate % (average): 1%
HUVEC cells; Anlotinib (5 μM), NO-NSAID 100 μM
  activation at 100 µM: 73%
HUVEC cells; Apatinib (10 μM), NO-NSAID 100 μM
  activation at 100 µM: 15%
HUVEC cells; Axitinib (10 μM), NO-NSAID 100 μM
  activation at 100 µM: 35%
HUVEC cells; Dacomitinib (5 μM), NO-NSAID 100 μM
  activation at 100 µM: 32%
HUVEC cells; Encorafenib (5 μM), NO-NSAID 100 μM
  activation at 100 µM: 28%
HUVEC cells; Erdafitinib (10 μM), NO-NSAID 100 μM
  activation at 100 µM: 59%
HUVEC cells; Famitinib (5 μM), NO-NSAID 100 μM
  activation at 100 µM: 39%
HUVEC cells; Fruquintinib (10 μM), NO-NSAID 100 μM
  activation at 100 µM: 22%
HUVEC cells; Gefitinib (10 μM), NO-NSAID 100 μM
  activation at 100 µM: 26%
HUVEC cells; [7]
  activation at 100 µM: 28%
  NO-NSAID response rate % (average): 28%
HUVEC cells; [8]
  activation at 100 µM: 40%
  NO-NSAID response rate % (average): 40%
HUVEC cells; [9]
  activation at 100 µM: 69%
  NO-NSAID response rate % (average): 69%
HUVEC cells; [10]
  activation at 100 µM: 57%
  NO-NSAID response rate % (average): 57%
HUVEC cells; [11]
  activation at 100 µM: 55%
  NO-NSAID response rate % (average): 55%
HUVEC cells; [12]
  activation at 100 µM: 49%
  NO-NSAID response rate % (average): 49%
HUVEC cells; [13]
  activation at 100 µM: 3%
  NO-NSAID response rate % (average): 3%
HUVEC cells; [14]
  activation at 100 µM: 50%
  NO-NSAID response rate % (average): 50%
HUVEC cells; Vemurafenib (5 μM), NO-NSAID 100 μM
  activation at 100 µM: 80%
HUVEC cells; Infigratinib (15 μM), NO-NSAID 0.1 μM
  NO-NSAID response rate % (average): 18%
HUVEC cells; Infigratinib (15 μM), NO-NSAID 1 μM
  NO-NSAID response rate % (average): 28%
HUVEC cells; Infigratinib (15 μM), NO-NSAID 500 μM
  NO-NSAID response rate % (average): 20%
HUVEC cells; Lapatinib (5 μM), NO-NSAID 0.1 μM
  NO-NSAID response rate % (average): 20%
HUVEC cells; Lapatinib (5 μM), NO-NSAID 1 μM
  NO-NSAID response rate % (average): 20%
HUVEC cells; Lapatinib (5 μM), NO-NSAID 500 μM
  NO-NSAID response rate % (average): 19%
HUVEC cells; Lenvatinib (10 μM), NO-NSAID 0.1 μM
  NO-NSAID response rate % (average): 21%
HUVEC cells; Lenvatinib (10 μM), NO-NSAID 1 μM
  NO-NSAID response rate % (average): 14%
HUVEC cells; Lenvatinib (10 μM), NO-NSAID 500 μM
  NO-NSAID response rate % (average): 20%
HUVEC cells; Olmutinib (10 μM), NO-NSAID 0.1 μM
  NO-NSAID response rate % (average): 27%
HUVEC cells; Olmutinib (10 μM), NO-NSAID 1 μM
  NO-NSAID response rate % (average): 35%
HUVEC cells; Olmutinib (10 μM), NO-NSAID 500 μM
  NO-NSAID response rate % (average): 23%
HUVEC cells; Regorafenib (5 μM), NO-NSAID 0.1 μM
  NO-NSAID response rate % (average): 32%
HUVEC cells; Regorafenib (5 μM), NO-NSAID 1 μM
  NO-NSAID response rate % (average): 37%
HUVEC cells; Regorafenib (5 μM), NO-NSAID 500 μM
  NO-NSAID response rate % (average): 26%
HUVEC cells; Selumetinib (5 μM), NO-NSAID 0.1 μM
  NO-NSAID response rate % (average): 28%
HUVEC cells; Selumetinib (5 μM), NO-NSAID 1 μM
  NO-NSAID response rate % (average): 53%
HUVEC cells; Selumetinib (5 μM), NO-NSAID 500 μM
  NO-NSAID response rate % (average): 34%
HUVEC cells; Sorafenib (5 μM), NO-NSAID 0.1 μM
  NO-NSAID response rate % (average): 13%
HUVEC cells; Sorafenib (5 μM), NO-NSAID 1 μM
  NO-NSAID response rate % (average): 7%
HUVEC cells; Sorafenib (5 μM), NO-NSAID 500 μM
  NO-NSAID response rate % (average): 29%
HUVEC cells; Sunitinib (5 μM), NO-NSAID 0.1 μM
  NO-NSAID response rate % (average): 10%
HUVEC cells; Sunitinib (5 μM), NO-NSAID 1 μM
  NO-NSAID response rate % (average): 37%
HUVEC cells; Sunitinib (5 μM), NO-NSAID 500 μM
  NO-NSAID response rate % (average): 7%
[1]; Afatinib (10 μM)
  Response rate % (average): 27%
[1]; Cabozantinib (5 μM)
  Response rate % (average): 8%
[1]; Dabrafenib (10 μM)
  Response rate % (average): 4%
[1]; Everolimus (5 μM)
  Response rate % (average): −8%
[1]; Infigratinib (15 μM)
  Response rate % (average): 7%
[1]; Lapatinib (5 μM)
  Response rate % (average): −4%
[1]; Lenvatinib (10 μM)
  Response rate % (average): 18%
[1]; Olmutinib (10 μM)
  Response rate % (average): 35%
[1]; Regorafenib (5 μM)
  Response rate % (average): 12%
[1]; Selumetinib (5 μM)
  Response rate % (average): 16%
[1]; Sorafenib (5 μM)
  Response rate % (average): 30%
[1]; Sunitinib (5 μM)
  Response rate % (average): 14%
[2]; Afatinib (10 μM)
  Response rate % (average): 7%
[2]; Cabozantinib (5 μM)
  Response rate % (average): 14%
[2]; Dabrafenib (10 μM)
  Response rate % (average): 7%
[2]; Everolimus (5 μM)
  Response rate % (average): 19%
[2]; Infigratinib (15 μM)
  Response rate % (average): 28%
[2]; Lapatinib (5 μM)
  Response rate % (average): 20%
[2]; Lenvatinib (10 μM)
  Response rate % (average): 22%
[2]; Olmutinib (10 μM)
  Response rate % (average): 33%
[2]; Regorafenib (5 μM)
  Response rate % (average): 26%
[2]; Selumetinib (5 μM)
  Response rate % (average): 19%
[2]; Sorafenib (5 μM)
  Response rate % (average): 24%
[2]; Sunitinib (5 μM)
  Response rate % (average): 4%
